“And” between values parts separate entries of the source, which are not always exact repeats. Equal values may be shown once.

This is an account of results in patent EP2642290A1, “Glatiramer acetate human monocytic cell line-based potency assay” (Synthon BV, priority 2012, dated 2013).

The test system of experiment [1] is THP-1 cells. As to the kind of experiment: Human monocytic cell line-based potency assay: sIL-1Ra expression (ELISA) in THP-1 cells stimulated with PMA and LPS and exposed to glatiramer acetate. The settings on record: THP-1 cells treated with PMA alone or LPS alone instead of the combination. On the technique in general: In an ELISA, binding on a coated surface is turned into a signal by an enzyme label.

Experiment [2] has as its system THP-1 cells. The description is as above. The method, then: Human monocytic cells are brought into a suitable medium, e.g. RPMI 1640 medium, and are stimulated with an effective amount of PMA and LPS, contacted with GA (0-250 μg/ml) and the effect on the expression of a monocyte anti-inflammatory cytokine, such as sIL-1Ra, is measured. […] Dose-response curves are generated by GA activation of monocytic cells and EC50 values are calculated using a non-linear four-parameter logistic model on semi-log transformed data, as described in the draft USP chapter <1034> on analysis of biological assays.
• THP-1 cells are harvested and centrifugated at 200g for 5 minutes; • Resuspend the pellet in 10 ml fresh pre-warmed RPMI-1640+10% FBS+2mM L-Glutamine; • Take a sample for cell counting; • After cell count adjust the cell density to 5 x 10^5 cells/ml and add 100 μl of the THP-1 cell suspension to the wells of a 96-wellsplate (Corning Costar #3596); • Fill the boundary wells of the plate with CGM and place the plate temporally into a humidified incubator at 37 ± 1 °C and 5.0 ± 1% CO2.
• In the dilution plate prepare the glatiramer acetate dilution series. The stock concentration is 20 mg/ml, which needs to be diluted in a 96-wellsplate to a working stock concentration of 1.2 mg/ml for the highest dilution on the dilution plate; • Pipette 75 μl RPMI-1640+10% FBS in column 2-8 (row B-G) of the dilution plate and pipette 235 μl RPMI-1640+10% FBS in column 9 (row B-G). Note: Other wells of the dilution 96-wellsplate remain unused; • Add 15 μl of reference glatiramer acetate and the test sample of glatiramer acetate (20 mg/ml) into column 9 (row B-G) of the dilution plate, giving a new concentration of 1.2 mg/ml; • Serially dilute 150 μl down, from column 9 to 2. Mix at each step by pipetting up and down 5 times; • Add 50 μl of the LPS/PMA working solution to the cell plate, with exception of the boundary wells.The final concentrations are 25 ng/ml LPS and 5 ng/ml PMA; • Add 50 μl of the glatiramer acetate dilutions to the plate containing the cells and the LPS and PMA working solution. The final dose-range of glatiramer acetate is between 12.5 and 250 μg/ml; • Incubate cells for 72 hours at 37°C in an incubator with 5% CO2, 93% humidity.
• After 72 hours of incubation centrifuge the 96-well plate at 200g for 5 minutes. • Transfer 150 μl of the cell-free supernatant/well to a storage plate. • Supernatant of the samples will be used for analysis by IL-1Ra/Il-1F3 ELISA. • sIL-1Ra is determined using the sIL-1Ra ELISA kit from Quantikine, R&D, Minneapolis, MN (Cat # DRAOOB) following the manufacturer's instructions. The remainder of the supernatant is stored in a closed storage plate at -80°C.
Data on sIL-1Ra concentration are analyzed for relative potency as described in draft USP chapter <1034> section 3.4 on nonlinear models for quantitative responses. The software package GraphPad Prism (5.x) is used for fitting to a nonlinear model to the data: • sIL-1Ra data (in pg/ml) are plotted against the log transformed glatiramer acetate concentration (in log μg/ml); • A four-parameter logistic model is constructed to fit the dose response curves of the Reference (Ref) and the test batch (TA). […]

On to glatiramer acetate, for which, in experiment [1], the GA-induced cytokine expression entry is “neither PMA nor LPS treatment of THP-1 cells alone results in GA-induced cytokine expression”. Also, the Bottom in experiment [2] (bottom asymptote of constrained four-parameter logistic fit of sIL-1Ra response (sIL-1Ra data in pg/ml), 5 ng/ml PMA and 25 ng/ml LPS, 72 hours, four independent curves A-D of the same material, common value) is listed as -4031. Besides, in experiment [2] (relative to curve A, arbitrarily set at 100%, all curves are 100% samples of the same material, curves A-D), the “Relative potency (%)” value is 100.0% and 128.5% and 118.5% and 107.7%. In experiment [2] (sIL-1Ra response, glatiramer acetate concentration in μg/ml, 5 ng/ml PMA and 25 ng/ml LPS, 72 hours, four independent curves A-D of the same material, in µg/mL), the EC50 is 42.05 and 54.02 and 49.84 and 45.28. The substance further gave a Slope in experiment [2] (slope of constrained four-parameter logistic fit of sIL-1Ra response, 5 ng/ml PMA and 25 ng/ml LPS, curves A-D, common value) of 3.306. Moreover, in experiment [2] (top asymptote of constrained four-parameter logistic fit of sIL-1Ra response (sIL-1Ra data in pg/ml), 5 ng/ml PMA and 25 ng/ml LPS, 72 hours, curves A-D, common value), the Top amounted to 53602.
